Assay results taken from US6706663B2, “Herbicidal 3-heterocyclic substituted benzisothiazole and benzisoxazole compounds” (Wyeth, priority 2000, dated 2004).

Assays:
[1] = test system: AMBEL (Ambrosia artemisifolia); test: Preemergence herbicidal evaluation; type: in vivo, L.; settings: rated 4-5 weeks after treatment
Method in brief: (§1)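 Applied before emergence as an aqueous acetone spray over seeded soil. Read-out: 0–9 visual rating covering plant stand, vigor, size, chlorosis, malformation and overall appearance compared with control, taken 4–5 weeks after spraying.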

[2] = test system: CHEAL (Chenopodium album); test: Preemergence herbicidal evaluation; type: in vivo, L.; settings: rated 4-5 weeks after treatment
Method in brief: as §1

[3] = test system: CASOB (Cassia obtusifolia); test: Preemergence herbicidal evaluation; type: in vivo, L.; settings: rated 4-5 weeks after treatment
Method in brief: as §1

[4] = test system: GLXMAW (Soybean, Williams); test: Postemergence herbicidal evaluation; type: in vivo, Glycine max, (L.) Merr. cv Williams; settings: for GLXMAW herbicidal rating: postemergence
Method in brief: (§2)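 Seedlings grown about two weeks in flats, sprayed, then kept under standard greenhouse care. Rated visually 4–5 weeks after treatment on a 0–9 scale (stand, vigour, malformation, size, chlorosis, overall appearance) relative to untreated control; repeat tests averaged.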

GALAP (Galium aparine) [5] = test: Postemergence herbicidal evaluation; type: in vivo; settings: for GALAP herbicidal rating: postemergence
Method in brief: as §2

[6] = test system: MOOVA (Monochoria vaginalis); test: Flooded paddy, preemergence weed control; type: in vivo, Presl.; settings: rated 3-4 weeks after treatment, 0-9 rating scale
Method in brief: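 Preemergence, flooded: propagules planted at 0.5 cm depth in silt loam, water level maintained at 1.5 to 3 cm over soil, containers kept on greenhouse benches. Activity scored 0-9 by eye relative to a control plant.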

SETVI (Setaria viridis) [7] = test: Preemergence herbicidal evaluation; type: in vivo, (L.) Beau; settings: rated 4-5 weeks after treatment
Method in brief: as §1

[8] = test system: ECHCG (Echinochloa crus-galli); test: Preemergence herbicidal evaluation; type: in vivo, (L.) Beau; settings: rated 4-5 weeks after treatment
Method in brief: as §1

SETVI (Setaria viridis) [9] = test: Postemergence herbicidal evaluation; type: in vivo, (L.) Beau; settings: for SETVI herbicidal rating: postemergence
Method in brief: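 ~2-wk seedlings; spray 0.0040–1.000 kg/ha in 50/50 acetone/water + 0.5% TWEEN 20, 40 psi nozzle. Greenhouse hold; visual 0–9 rating vs control at 4–5 wk; multiple tests averaged.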

[10] = test system: ABUTH (Abutilon theophrasti); test: Postemergence herbicidal evaluation; type: in vivo, Medic.; settings: for ABUTH herbicidal rating: postemergence
Method in brief: as §2

ORYSAT (Rice, Tebonnet) = test: Flooded paddy, post-transplant rice tolerance; type: in vivo, Oryza sativa, (L.) Tebonnet; settings: flooded paddy, post-transplant rice, rated 3-4 weeks after treatment, 0-9 rating scale
Method in brief: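 Visual 0–9 injury rating against a control, covering stand, vigor, malformation, size, chlorosis and overall appearance. Treatment was post-transplant onto flooded containers (water 1.5–3 cm deep, silt loam) holding two ten-day-old cv. Tebonnet seedlings, maintained on greenhouse benches.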

[11] = test system: ABUTH (Abutilon theophrasti); test: Preemergence herbicidal evaluation; type: in vivo, Medic.; settings: rated 4-5 weeks after treatment
GALAP (Galium aparine) [12] = test: Preemergence herbicidal evaluation; type: in vivo; settings: rated 4-5 weeks after treatment
Method in brief: as §1

[13] = test system: TRZAWR (Wheat, Winter, cv Riband); test: Postemergence herbicidal evaluation; type: in vivo, Triticum aestivum; settings: for TRZAWR herbicidal rating: postemergence
Method in brief: as §2

[14] = test system: IPOHE (Ipomoea hederacea); test: Postemergence herbicidal evaluation; type: in vivo, (L.) Jacq.; settings: for IPOHE herbicidal rating: postemergence
Method in brief: as §2

ZEAMX (Corn, Field) = test: Preemergence herbicidal evaluation; type: in vivo, Zea mays, L.; settings: rated 4-5 weeks after treatment

Cn1c(C(F)(F)F)cc(=O)n(-c2ccc3snc(-c4ccccn4)c3c2)c1=O [Compound 9, 1-methyl-3-[3-(2-pyridyl)-1,2-benzisothiazol-5-yl]-6-(trifluoromethyl)uracil]
AMBEL preemergence herbicidal rating ([1]; Rate 0.0620 kg/ha): 6.3
AMBEL preemergence herbicidal rating ([1]; Rate 0.1250 kg/ha): 9.0
AMBEL preemergence herbicidal rating ([1]; Rate 0.2500 kg/ha): 9.0
CHEAL preemergence herbicidal rating ([2]; Rate 0.0620 kg/ha): 9.0
CHEAL preemergence herbicidal rating ([2]; Rate 0.1250 kg/ha): 9.0
CHEAL preemergence herbicidal rating ([2]; Rate 0.2500 kg/ha): 9.0
CASOB preemergence herbicidal rating ([3]; Rate 0.0620 kg/ha): 1.0
CASOB preemergence herbicidal rating ([3]; Rate 0.1250 kg/ha): 2.7
CASOB preemergence herbicidal rating ([3]; Rate 0.2500 kg/ha): 6.3
Postemergence herbicidal rating, GLXMAW ([4]; rate 0.0320 kg/ha): 8.3
Postemergence herbicidal rating, GLXMAW ([4]; rate 0.0620 kg/ha): 8.3
Postemergence herbicidal rating, GLXMAW ([4]; rate 0.1250 kg/ha): 9.0
Postemergence herbicidal rating, GALAP (GALAP (Galium aparine) [5]; rate 0.0320 kg/ha): 7.0
Postemergence herbicidal rating, GALAP (GALAP (Galium aparine) [5]; rate 0.0620 kg/ha): 7.0
Postemergence herbicidal rating, GALAP (GALAP (Galium aparine) [5]; rate 0.1250 kg/ha): 5.0
herbicidal rating, MOOVA ([6]; rate 0.0080 kg/ha): 8.0
herbicidal rating, MOOVA ([6]; rate 0.0320 kg/ha): 9.0
herbicidal rating, MOOVA ([6]; rate 0.1250 kg/ha): 9.0
SETVI preemergence herbicidal rating (SETVI (Setaria viridis) [7]; Rate 0.0620 kg/ha): 9.0
SETVI preemergence herbicidal rating (SETVI (Setaria viridis) [7]; Rate 0.1250 kg/ha): 9.0
SETVI preemergence herbicidal rating (SETVI (Setaria viridis) [7]; Rate 0.2500 kg/ha): 9.0
ECHCG preemergence herbicidal rating ([8]; Rate 0.0620 kg/ha): 8.3
ECHCG preemergence herbicidal rating ([8]; Rate 0.1250 kg/ha): 9.0
ECHCG preemergence herbicidal rating ([8]; Rate 0.2500 kg/ha): 9.0
Postemergence herbicidal rating, SETVI (SETVI (Setaria viridis) [9]; rate 0.0320 kg/ha): 8.0
Postemergence herbicidal rating, SETVI (SETVI (Setaria viridis) [9]; rate 0.0620 kg/ha): 9.0
Postemergence herbicidal rating, SETVI (SETVI (Setaria viridis) [9]; rate 0.1250 kg/ha): 9.0
Postemergence herbicidal rating, ABUTH ([10]; rate 0.0320 kg/ha): 9.0
Postemergence herbicidal rating, ABUTH ([10]; rate 0.0620 kg/ha): 9.0
Postemergence herbicidal rating, ABUTH ([10]; rate 0.1250 kg/ha): 9.0
herbicidal rating, ORYSAT (rice tolerance) (ORYSAT (Rice, Tebonnet); rate 0.0080 kg/ha): 4.0
herbicidal rating, ORYSAT (rice tolerance) (ORYSAT (Rice, Tebonnet); rate 0.0320 kg/ha): 3.0
herbicidal rating, ORYSAT (rice tolerance) (ORYSAT (Rice, Tebonnet); rate 0.1250 kg/ha): 6.0
ABUTH preemergence herbicidal rating ([11]; Rate 0.0620 kg/ha): 9.0
ABUTH preemergence herbicidal rating ([11]; Rate 0.1250 kg/ha): 9.0
ABUTH preemergence herbicidal rating ([11]; Rate 0.2500 kg/ha): 9.0
GALAP preemergence herbicidal rating (GALAP (Galium aparine) [12]; Rate 0.0620 kg/ha): 1.5
GALAP preemergence herbicidal rating (GALAP (Galium aparine) [12]; Rate 0.1250 kg/ha): 3.0
GALAP preemergence herbicidal rating (GALAP (Galium aparine) [12]; Rate 0.2500 kg/ha): 7.0
Postemergence herbicidal rating, TRZAWR ([13]; rate 0.0320 kg/ha): 4.0
Postemergence herbicidal rating, TRZAWR ([13]; rate 0.0620 kg/ha): 4.5
Postemergence herbicidal rating, TRZAWR ([13]; rate 0.1250 kg/ha): 6.0
Postemergence herbicidal rating, IPOHE ([14]; rate 0.0320 kg/ha): 9.0
Postemergence herbicidal rating, IPOHE ([14]; rate 0.0620 kg/ha): 9.0
Postemergence herbicidal rating, IPOHE ([14]; rate 0.1250 kg/ha): 9.0
ZEAMX preemergence herbicidal rating (ZEAMX (Corn, Field); Rate 0.0620 kg/ha): 6.3
ZEAMX preemergence herbicidal rating (ZEAMX (Corn, Field); Rate 0.1250 kg/ha): 6.7
ZEAMX preemergence herbicidal rating (ZEAMX (Corn, Field); Rate 0.2500 kg/ha): 7.7

C=C1COC(c2nsc3ccc(-n4c(=O)cc(C(F)(F)F)n(C)c4=O)cc23)OC1 [Compound 58, 2,4(1H,3H)-pyrimidinedione, 1-methyl-3-[3-(5-methylene-m-dioxan-2-yl)-1,2-benzisothiazol-5-yl]-6-(trifluoromethyl)-]
Preemergence herbicidal rating AMBEL ([1]; Rate 0.0620 kg/ha): 9.0
Preemergence herbicidal rating AMBEL ([1]; Rate 0.1250 kg/ha): 9.0
Preemergence herbicidal rating AMBEL ([1]; Rate 0.2500 kg/ha): 9.0
Preemergence herbicidal rating CHEAL ([2]; Rate 0.0620 kg/ha): 9.0
Preemergence herbicidal rating CHEAL ([2]; Rate 0.1250 kg/ha): 9.0
Preemergence herbicidal rating CHEAL ([2]; Rate 0.2500 kg/ha): 9.0
Preemergence herbicidal rating CASOB ([3]; Rate 0.0620 kg/ha): 5.5
Preemergence herbicidal rating CASOB ([3]; Rate 0.1250 kg/ha): 6.5
Preemergence herbicidal rating CASOB ([3]; Rate 0.2500 kg/ha): 9.0
GLXMAW herbicidal rating ([4]; rate 0.0320 kg/ha): 7.0
GLXMAW herbicidal rating ([4]; rate 0.0620 kg/ha): 7.5
GALAP herbicidal rating (GALAP (Galium aparine) [5]; rate 0.0320 kg/ha): 7.0
GALAP herbicidal rating (GALAP (Galium aparine) [5]; rate 0.0620 kg/ha): 9.0
herbicidal rating, MOOVA ([6]; rate 0.0320 kg/ha): 9.0
herbicidal rating, MOOVA ([6]; rate 0.1250 kg/ha): 9.0
Preemergence herbicidal rating SETVI (SETVI (Setaria viridis) [7]; Rate 0.0620 kg/ha): 8.0
Preemergence herbicidal rating SETVI (SETVI (Setaria viridis) [7]; Rate 0.1250 kg/ha): 9.0
Preemergence herbicidal rating SETVI (SETVI (Setaria viridis) [7]; Rate 0.2500 kg/ha): 9.0
Preemergence herbicidal rating ECHCG ([8]; Rate 0.0620 kg/ha): 9.0
Preemergence herbicidal rating ECHCG ([8]; Rate 0.1250 kg/ha): 9.0
Preemergence herbicidal rating ECHCG ([8]; Rate 0.2500 kg/ha): 9.0
SETVI herbicidal rating (SETVI (Setaria viridis) [9]; rate 0.0320 kg/ha): 1.0
SETVI herbicidal rating (SETVI (Setaria viridis) [9]; rate 0.0620 kg/ha): 6.0
ABUTH herbicidal rating ([10]; rate 0.0320 kg/ha): 9.0
ABUTH herbicidal rating ([10]; rate 0.0620 kg/ha): 9.0
herbicidal rating, ORYSAT (rice tolerance) (ORYSAT (Rice, Tebonnet); rate 0.0320 kg/ha): 4.0
herbicidal rating, ORYSAT (rice tolerance) (ORYSAT (Rice, Tebonnet); rate 0.1250 kg/ha): 7.0
Preemergence herbicidal rating ABUTH ([11]; Rate 0.0620 kg/ha): 9.0
Preemergence herbicidal rating ABUTH ([11]; Rate 0.1250 kg/ha): 9.0
Preemergence herbicidal rating ABUTH ([11]; Rate 0.2500 kg/ha): 9.0
Preemergence herbicidal rating GALAP (GALAP (Galium aparine) [12]; Rate 0.0620 kg/ha): 9.0
Preemergence herbicidal rating GALAP (GALAP (Galium aparine) [12]; Rate 0.1250 kg/ha): 9.0
Preemergence herbicidal rating GALAP (GALAP (Galium aparine) [12]; Rate 0.2500 kg/ha): 9.0
TRZAWR herbicidal rating ([13]; rate 0.0320 kg/ha): 4.0
TRZAWR herbicidal rating ([13]; rate 0.0620 kg/ha): 4.5
IPOHE herbicidal rating ([14]; rate 0.0320 kg/ha): 9.0
IPOHE herbicidal rating ([14]; rate 0.0620 kg/ha): 9.0
Preemergence herbicidal rating ZEAMX (ZEAMX (Corn, Field); Rate 0.0620 kg/ha): 8.0
Preemergence herbicidal rating ZEAMX (ZEAMX (Corn, Field); Rate 0.1250 kg/ha): 9.0
Preemergence herbicidal rating ZEAMX (ZEAMX (Corn, Field); Rate 0.2500 kg/ha): 9.0
